Article PMC5513091, “A novel Alzheimer’s disease drug candidate targeting inflammation and fatty acid metabolism” (Alzheimer's Research & Therapy, 2017)

Test system: cortex metabolites
Assay: Metabolomic analysis of cortex
Format: in vivo, mice
Experimental: Metabolomic analyses were conducted at Metabolon (Durham, NC, USA) as described previously. For statistical analyses and data display, any missing values were assumed to be below the limits of detection and imputed with the compound minimum (minimum value imputation). An estimate of the FDR (Q value) was calculated to take into account the multiple comparisons that normally occur in metabolomics-based studies, with Q < 0.05 used as an indication of high confidence in a result. The MetaboAnalyst tool was used to generate heat maps.

Cc1ccc(N(/N=C/c2cccc(OC(F)(F)F)c2)C(=O)C(F)(F)F)c(C)c1 [CAD-31]
monoacylglycerols in brain (AD mice, only significant drug effect): an increase in monoacylglycerols | Long-chain fatty acids and monoacylglycerols in brain (WT mice): decreased | acetyl-CoA, ketone bodies, and acyl carnitines in brain (WT mice): increased | ergothioneine Fold Change (cortex, AD+31/AD, p-value 8.4373e-5): 0.57 | N-acetylalanine Fold Change (cortex, AD+31/AD, p-value 0.0006): 0.84 | glycerate Fold Change (cortex, AD+31/AD, p-value 0.0086): 0.65 | 2-oleoylglycerol (18:1) Fold Change (cortex, AD+31/AD, p-value 0.0105): 1.51 | 1-palmitoylglycerol (16:0) Fold Change (cortex, AD+31/AD, p-value 0.0153): 1.41 | 2-methylcitrate/homocitrate Fold Change (cortex, AD+31/AD, p-value 0.0221): 1.13 | hypoxanthine Fold Change (cortex, AD+31/AD, p-value 0.0231): 0.89 | N-acetylneuraminate Fold Change (cortex, AD+31/AD, p-value 0.0277): 0.85 | 2-palmitoylglycerol (16:0) Fold Change (cortex, AD+31/AD, p-value 0.031): 1.57 | 1-palmitoyl-GPG (16:0)* Fold Change (cortex, AD+31/AD, p-value 0.0317): 1.85 | azelate (nonanedioate) Fold Change (cortex, AD+31/AD, p-value 0.0374): 0.73 | ribose Fold Change (cortex, AD+31/AD, p-value 0.0378): 0.84 | arachidate (20:0) Fold Change (cortex, AD+31/AD, p-value 0.0406): 1.47 | N-delta-acetylornithine Fold Change (cortex, AD+31/AD, p-value 0.0407): 1.32 | 3-sulfo-nervonoyl-galactosylceramide (d18:1/24:1) Fold Change (cortex, AD+31/AD, p-value 0.0443): 1.08 | 1-oleoylglycerol (18:1) Fold Change (cortex, AD+31/AD, p-value 0.0513): 1.46 | 1-stearoyl-GPG (18:0) Fold Change (cortex, AD+31/AD, p-value 0.055): 1.87 | N-acetylglutamate Fold Change (cortex, AD+31/AD, p-value 0.0559): 0.92 | linoleoyl ethanolamide Fold Change (cortex, AD+31/AD, p-value 0.0645): 1.62 | N-acetylglucosaminylasparagine Fold Change (cortex, AD+31/AD, p-value 0.0691): 0.92 | tricosenoate (23:1) Fold Change (cortex, AD+31/AD, p-value 0.0711): 1.54 | 2'-deoxycytidine Fold Change (cortex, AD+31/AD, p-value 0.088): 0.85 | nonadecanoate (19:0) Fold Change (cortex, AD+31/AD, p-value 0.0981): 1.35 | palmitate (16:0) Fold Change (cortex, AD+31/AD, p-value 0.1021): 1.36 | erucate (22:1n9) Fold Change (cortex, AD+31/AD, p-value 0.1047): 1.44 | 5-methylthioadenosine (MTA) Fold Change (cortex, AD+31/AD, p-value 0.1124): 1.12 | stearate (18:0) Fold Change (cortex, AD+31/AD, p-value 0.1164): 1.35 | eicosenoate (20:1) Fold Change (cortex, AD+31/AD, p-value 0.1281): 1.43 | oleate/vaccenate (18:1) Fold Change (cortex, AD+31/AD, p-value 0.1397): 1.39 | adrenate (22:4n6) Fold Change (cortex, AD+31/AD, p-value 0.1408): 1.56 | 1-oleoyl-2-linoleoyl-GPC (18:1/18:2)* Fold Change (cortex, AD+31/AD, p-value 0.1443): 1.12 | glutamate, gamma-methyl ester Fold Change (cortex, AD+31/AD, p-value 0.157): 0.73 | docosadienoate (22:2n6) Fold Change (cortex, AD+31/AD, p-value 0.1608): 1.38 | beta-citrylglutamate Fold Change (cortex, AD+31/AD, p-value 0.1678): 1.19 | methylphosphate Fold Change (cortex, AD+31/AD, p-value 0.1679): 1.13 | pyroglutamine* Fold Change (cortex, AD+31/AD, p-value 0.1791): 1.11 | glycerophosphoglycerol Fold Change (cortex, AD+31/AD, p-value 0.1865): 0.93 | dihomo-linoleate (20:2n6) Fold Change (cortex, AD+31/AD, p-value 0.1892): 1.35 | docosatrienoate (22:3n3) Fold Change (cortex, AD+31/AD, p-value 0.1893): 1.69 | arabinose Fold Change (cortex, AD+31/AD, p-value 0.2015): 0.93 | UDP-glucose Fold Change (cortex, AD+31/AD, p-value 0.209): 1.28 | UDP-N-acetylglucosamine/galactosamine Fold Change (cortex, AD+31/AD, p-value 0.2104): 0.95 | 1-palmitoyl-2-gamma-linolenoyl-GPC (16:0/18:3n6)* Fold Change (cortex, AD+31/AD, p-value 0.213): 0.91 | 1-arachidonylglycerol (20:4) Fold Change (cortex, AD+31/AD, p-value 0.2257): 1.2 | hippurate Fold Change (cortex, AD+31/AD, p-value 0.2339): 1.5 | mead acid (20:3n9) Fold Change (cortex, AD+31/AD, p-value 0.2367): 1.39 | 2-hydroxydecanoate Fold Change (cortex, AD+31/AD, p-value 0.2531): 0.84 | glycerol 3-phosphate Fold Change (cortex, AD+31/AD, p-value 0.2532): 0.91 | 10-nonadecenoate (19:1n9) Fold Change (cortex, AD+31/AD, p-value 0.2636): 1.26 | methionine Fold Change (cortex, AD+31/AD, p-value 0.2665): 1.1 | 1-docosahexaenoylglycerol (22:6) Fold Change (cortex, AD+31/AD, p-value 0.2822): 1.21 | 3-hydroxy-3-methylglutarate Fold Change (cortex, AD+31/AD, p-value 0.2908): 0.95 | anserine Fold Change (cortex, AD+31/AD, p-value 0.2924): 1.14 | N-formylmethionine Fold Change (cortex, AD+31/AD, p-value 0.3078): 0.94 | 3-hydroxybutyrylcarnitine (2) Fold Change (cortex, AD+31/AD, p-value 0.3124): 1.37 | acetylphosphate Fold Change (cortex, AD+31/AD, p-value 0.3359): 0.91 | 1-methylimidazoleacetate Fold Change (cortex, AD+31/AD, p-value 0.3448): 0.9 | N-acetylmethionine Fold Change (cortex, AD+31/AD, p-value 0.3576): 0.96 | arachidonoyl ethanolamide Fold Change (cortex, AD+31/AD, p-value 0.3632): 1.06 | deoxycarnitine Fold Change (cortex, AD+31/AD, p-value 0.3877): 0.94 | palmitoylcholine Fold Change (cortex, AD+31/AD, p-value 0.42): 1.09 | putrescine Fold Change (cortex, AD+31/AD, p-value 0.4207): 1.08 | adenosine 5'-diphosphoribose (ADP-ribose) Fold Change (cortex, AD+31/AD, p-value 0.4258): 0.94 | margarate (17:0) Fold Change (cortex, AD+31/AD, p-value 0.4323): 1.24 | phenol sulfate Fold Change (cortex, AD+31/AD, p-value 0.4423): 1.28 | acetylcarnitine Fold Change (cortex, AD+31/AD, p-value 0.4578): 1.25 | lactate Fold Change (cortex, AD+31/AD, p-value 0.4961): 1.08 | acetyl CoA Fold Change (cortex, AD+31/AD, p-value 0.4998): 1.33 | 3-hydroxybutyrate (BHBA) Fold Change (cortex, AD+31/AD, p-value 0.5074): 1.29 | 2-hydroxystearate Fold Change (cortex, AD+31/AD, p-value 0.5156): 1.2 | gamma-glutamylhistidine Fold Change (cortex, AD+31/AD, p-value 0.5232): 0.9 | gulonate* Fold Change (cortex, AD+31/AD, p-value 0.5547): 0.96 | 1-oleoyl-2-arachidonoyl-GPI (18:1/20:4) * Fold Change (cortex, AD+31/AD, p-value 0.5635): 1.02 | 6-phosphogluconate Fold Change (cortex, AD+31/AD, p-value 0.6142): 0.86 | adenosine 2'-monophosphate (2'-AMP) Fold Change (cortex, AD+31/AD, p-value 0.6144): 1.09 | glucosamine-6-phosphate Fold Change (cortex, AD+31/AD, p-value 0.6542): 1.06 | 1-palmitoyl-2-palmitoleoyl-GPC (16:0/16:1)* Fold Change (cortex, AD+31/AD, p-value 0.6549): 0.98 | 1-(1-enyl-stearoyl)-2-arachidonoyl-GPE (P-18:0/20:4)* Fold Change (cortex, AD+31/AD, p-value 0.6588): 1.01 | mannose Fold Change (cortex, AD+31/AD, p-value 0.6613): 0.9 | UDP-galactose Fold Change (cortex, AD+31/AD, p-value 0.6737): 1.03 | phosphoethanolamine Fold Change (cortex, AD+31/AD, p-value 0.6749): 0.98 | sphingomyelin (d18:1/18:1, d18:2/18:0) Fold Change (cortex, AD+31/AD, p-value 0.6798): 1.03 | sedoheptulose-7-phosphate Fold Change (cortex, AD+31/AD, p-value 0.7025): 0.98 | 1-stearoyl-GPC (18:0) Fold Change (cortex, AD+31/AD, p-value 0.7211): 0.94 | 1-palmitoyl-2-oleoyl-GPS (16:0/18:1) Fold Change (cortex, AD+31/AD, p-value 0.7273): 1.01 | glucose 6-phosphate Fold Change (cortex, AD+31/AD, p-value 0.7454): 0.99 | prolylglycine Fold Change (cortex, AD+31/AD, p-value 0.7821): 0.99 | glycerophosphoethanolamine Fold Change (cortex, AD+31/AD, p-value 0.7927): 1.02 | succinylcarnitine Fold Change (cortex, AD+31/AD, p-value 0.8024): 0.95 | glutamate Fold Change (cortex, AD+31/AD, p-value 0.8146): 0.99 | N-acetyl-glucosamine 1-phosphate Fold Change (cortex, AD+31/AD, p-value 0.868): 0.98 | O-methyltyrosine Fold Change (cortex, AD+31/AD, p-value 0.8778): 0.98 | galactose 1-phosphate Fold Change (cortex, AD+31/AD, p-value 0.8947): 1.05 | 17-methylstearate Fold Change (cortex, AD+31/AD, p-value 0.9061): 1 | 1-stearoyl-2-oleoyl-GPI (18:0/18:1)* Fold Change (cortex, AD+31/AD, p-value 0.9089): 1 | lysine Fold Change (cortex, AD+31/AD, p-value 0.9193): 1 | fructose-6-phosphate Fold Change (cortex, AD+31/AD, p-value 0.9322): 1.01 | coenzyme A Fold Change (cortex, AD+31/AD, p-value 0.937): 1.03 | oleoyl-oleoyl-glycerol (18:1/18:1) [2]* Fold Change (cortex, AD+31/AD, p-value 0.9411): 1
